The text below walks through data of patent US20050250836A1, “Inhibitors of checkpoint kinases (Wee1 and Chk1)” (Pfizer Inc, priority 2004, published 2005).

What is called melting point is the temperature of the solid-liquid transition. `Cn1ccc2c3c(c(-c4ccccc4[S+](C)[O-])cc21)C(=O)NC3=O` (stereo not shown) [Example 134 (sulfoxide), 4-(2-Methanesulfinylphenyl)-6-methyl-6H-2,6-diaza-as-indacene-1,3-dione] gave a melting point of 311 to 315 °C. The figure for `O=C1NC(=O)c2c1c(-c1ccccc1Cl)cc1c2cc(C(=O)O)n1CCCBr` [Example 49, 6-(3-Bromopropyl)-4-(2-chlorophenyl)-1,3-dioxo-1,2,3,6-tetrahydro-2,6-diaza-as-indacene-7-carboxylic acid] is 294 to 295 °C; for `COCCCn1c(C=O)cc2c3c(c(-c4ccccc4Cl)cc21)C(=O)NC3=O` [Example 58, 4-(2-Chlorophenyl)-6-(3-methoxypropyl)-1,3-dioxo-1,2,3,6-tetrahydro-2,6-diaza-as-indacene-7-carbaldehyde] it is 155 to 156 °C. The figure for `O=C1NC(=O)c2c1c(-c1ccccc1Cl)cc1c2c(Br)cn1CCCN1CCCC1` [Example 137, 8-Bromo-4-(2-chlorophenyl)-6-(3-pyrrolidin-1-ylpropyl)-6H-2,6-diaza-as-indacene-1,3-dione] is 158 to 161 °C; for `Cn1cc(CO)c2c3c(c(-c4ccccc4Cl)cc21)C(=O)NC3=O` [Example 168, 4-(2-chlorophenyl)-8-hydroxymethyl-6-methyl-6H-2,6-diaza-as-indacene-1,3-dione] it is 270 to 274 °C; for `COc1ccccc1-c1cc2c(c(C#CCO)cn2C)c2c1C(=O)NC2=O` [Example 150, 8-(3-Hydroxyprop-1-ynyl)-4-(2-methoxyphenyl)-6-methyl-6H-2,6-diaza-as-indacene-1,3-dione] it is 154 to 157 °C. The figure for `COCCCn1c(C(=O)O)cc2c3c(c(-c4ccccc4Cl)cc21)C(=O)NC3=O` [Example 47, 4-(2-Chlorophenyl)-6-(3-methoxypropyl)-1,3-dioxo-1,2,3,6-tetrahydro-2,6-diaza-as-indacene-7-carboxylic acid] is 272 to 274 °C. Compound `COCCCn1ccc2c3c(c(-c4ccccc4Cl)cc21)C(=O)NC3=O` [Example 43, 4-(2-Chlorophenyl)-6-(3-methoxypropyl)-6H-2,6-diaza-as-indacene-1,3-dione] displayed a melting point of 171 to 172 °C. The figure for `CCOCCOCCn1c(C=O)cc2c3c(c(-c4ccccc4Cl)cc21)C(=O)NC3=O` [Example 55, 4-(2-Chlorophenyl)-6-[2-(2-ethoxyethoxy)ethyl]-1,3-dioxo-1,2,3,6-tetrahydro-2,6-diaza-as-indacene-7-carbaldehyde] is 162 to 165 °C; for `Cn1cc(C(O)CO)c2c3c(c(-c4ccccc4Cl)cc21)C(=O)NC3=O` (stereo not shown) [Example 146, 4-(2-Chlorophenyl)-8-(1,2-dihydroxyethyl)-6-methyl-6H-2,6-diaza-as-indacene-1,3-dione] it is 179 to 183 °C; for `O=C1NC(=O)c2c1c(-c1ccccc1Cl)cc1c2c(Cl)c(CO)n1CCCO` [Example 66, 8-Chloro-4-(2-chlorophenyl)-7-hydroxymethyl-6-(3-hydroxypropyl)-6H-2,6-diaza-as-indacene-1,3-dione] it is 218 to 219 °C.

In turn, `COc1ccccc1-c1cc2c(c(Br)cn2C)c2c1C(=O)NC2=O` [Example 28, 8-Bromo-4-(2-methoxyphenyl)-6-methyl-6H-2,6-diaza-as-indacene-1,3-dione] displayed a melting point of 216 to 220 °C.

Turning to `O=C(O)CCn1cc(Br)c2c3c(c(-c4ccccc4Cl)cc21)C(=O)NC3=O` [Example 165, 3-[8-Bromo-4-(2-chlorophenyl)-1,3-dioxo-2,3-dihydro-1H-2,6-diaza-as-indacen-6-yl]propionic acid], the melting point lay in the range of 182 to 186 °C. The figure for `Cn1cc(CN2CCCC2)c2c3c(c(-c4ccccc4Cl)cc21)C(=O)NC3=O` [Example 166, 4-(2-Chlorophenyl)-6-methyl-8-pyrrolidin-1-ylmethyl-6H-2,6-diaza-as-indacene-1,3-dione] is 160 to 165 °C (dec.); for `O=C1NC(=O)c2c1c(-c1ccccc1Cl)cc1c2cc(CO)n1CCCBr` [Example 50, 6-(3-Bromopropyl)-4-(2-chlorophenyl)-7-hydroxymethyl-6H-2,6-diaza-as-indacene-1,3-dione] it is 218 to 220 °C.

With `COCCCn1cc(Br)c2c3c(c(-c4ccccc4Cl)cc21)C(=O)NC3=O` [Example 44, 8-Bromo-4-(2-chlorophenyl)-6-(3-methoxypropyl)-6H-2,6-diaza-as-indacene-1,3-dione], the melting point is 149 to 151 °C.
